Reference: publication PMC6751662, “Pharmacological and functional similarities of the human neuropeptide Y system in C. elegans challenges phylogenetic views on the FLP/NPR system” (Cell Communication and Signaling : CCS, 2019)

What was measured:
Format in all cases: cell-based, C. elegans
[1] = biological target: T1, NPR-4b (Caenorhabditis elegans, UniProt A0A078BTK0); assay: cAMP reporter gene assay, Gs (no forskolin), NPR-4b; conditions: no forskolin, 4 h, transiently transfected HEK293, CRE-luciferase reporter, mean of >=3 independent experiments
T1 sequence (A0A078BTK0 1-376): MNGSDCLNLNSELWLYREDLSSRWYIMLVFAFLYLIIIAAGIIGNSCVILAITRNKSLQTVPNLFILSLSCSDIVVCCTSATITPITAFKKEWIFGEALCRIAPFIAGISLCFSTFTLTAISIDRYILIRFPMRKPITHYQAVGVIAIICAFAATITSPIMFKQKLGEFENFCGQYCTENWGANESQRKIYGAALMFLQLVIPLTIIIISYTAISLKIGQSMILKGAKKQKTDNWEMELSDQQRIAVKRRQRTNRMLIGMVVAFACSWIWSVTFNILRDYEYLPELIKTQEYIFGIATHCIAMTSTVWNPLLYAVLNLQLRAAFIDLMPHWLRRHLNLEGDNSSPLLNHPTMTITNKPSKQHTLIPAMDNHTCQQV
Procedure: (§1) Activation of Gs and Gi/o was assessed with a cAMP reporter gene assay. HEK293 cells grown to 70–80% confluency in 6-well plates were transiently co-transfected with vectors encoding the receptor and the cAMP reporter gene plasmid pGL4.29 [luc2P/CRE/Hygro] (Promega; 4 μg total, 1:1 ratio) using Metafectene Pro (3 μl/μg DNA; Biontex) following the manufacturer’s instructions. 16 h post transfection, the cells were seeded into white 384-well plates at a density of 20,000 cells/well. On the next day, the medium was removed and the cells were stimulated with 20 μl of peptide solution (or forskolin as positive control) in serum-free DMEM for 4 h. For measuring Gi/o activity, the peptide solutions additionally contained 1 μM forskolin to elevate cellular cAMP levels. After incubation, the luciferase substrate OneGlo in lysis buffer (Promega) was added and the luminescence was measured in a microplate reader Tecan Spark (Tecan). Data were analyzed with GraphPad Prism 5.03 and are shown as fold of basal or fold of forskolin in case of Gαi/o activity.
(§2) For in vitro activation, data is presented as mean ± SEM of at least three independent experiments conducted in technical triplicate. […] For the C. elegans NPRs, we considered the strongest response elicited by any of the peptides downstream of a particular receptor as the receptor’s maximal signal. This may or may not be the biological maximum that can be reached by the ‘true’ endogenous agonist. For the human receptors, the response to the established endogenous agonist reflected the maximal signal.

[2] = biological target: T2, NPR-5b (Caenorhabditis elegans, UniProt Q6F3C9); assay: cAMP reporter gene assay, Gs (no forskolin), NPR-5b; conditions: no forskolin, 4 h, transiently transfected HEK293, CRE-luciferase reporter, mean of >=3 independent experiments
T2 sequence (Q6F3C9 1-433): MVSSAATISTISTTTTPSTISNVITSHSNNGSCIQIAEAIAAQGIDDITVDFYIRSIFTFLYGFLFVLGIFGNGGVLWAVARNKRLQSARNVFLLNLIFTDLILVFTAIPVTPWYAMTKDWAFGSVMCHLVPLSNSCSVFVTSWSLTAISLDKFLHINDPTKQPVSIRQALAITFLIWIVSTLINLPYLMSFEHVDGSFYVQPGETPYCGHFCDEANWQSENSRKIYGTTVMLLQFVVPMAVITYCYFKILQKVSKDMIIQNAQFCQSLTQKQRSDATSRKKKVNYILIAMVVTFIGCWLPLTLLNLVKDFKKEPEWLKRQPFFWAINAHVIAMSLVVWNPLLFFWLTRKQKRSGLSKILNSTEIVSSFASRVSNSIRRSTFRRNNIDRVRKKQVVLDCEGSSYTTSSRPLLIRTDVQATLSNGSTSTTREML
Procedure: as §1, §2

[3] = biological target: T3, NPR-11 (Caenorhabditis elegans, UniProt Q18179); assay: cAMP reporter gene assay, Gs (no forskolin), NPR-11; conditions: no forskolin, 4 h, transiently transfected HEK293, CRE-luciferase reporter, mean of >=3 independent experiments
T3 construct: expressed in transfected cells; host or cells: HEK293, transient
T3 sequence (Q18179 1-402): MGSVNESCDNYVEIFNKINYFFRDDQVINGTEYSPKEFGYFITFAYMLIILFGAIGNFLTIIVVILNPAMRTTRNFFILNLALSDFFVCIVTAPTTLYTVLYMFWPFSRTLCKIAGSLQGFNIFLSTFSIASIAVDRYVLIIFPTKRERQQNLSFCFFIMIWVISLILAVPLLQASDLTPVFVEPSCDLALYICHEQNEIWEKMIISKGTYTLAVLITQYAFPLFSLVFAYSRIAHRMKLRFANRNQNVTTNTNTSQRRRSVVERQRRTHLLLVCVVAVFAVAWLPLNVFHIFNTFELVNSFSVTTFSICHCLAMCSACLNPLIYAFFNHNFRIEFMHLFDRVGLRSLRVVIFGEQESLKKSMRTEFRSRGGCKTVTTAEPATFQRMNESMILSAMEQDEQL
Procedure: as §1, §2

[4] = biological target: T1, NPR-4b; assay: IP accumulation assay, endogenous Gαq + mock, NPR-4b; conditions: 1 h, HBSS + 20 mM LiCl, HEK293 receptor + empty vector, HTRF IP-One, mean of >=3 independent experiments
Procedure: (§3) For measuring IP accumulation, HEK293 cells grown to 70–80% confluency in 6-well plates were transiently co-transfected using Metafectene Pro (2.5 μl/μg DNA; Biontex) with plasmids containing receptor and/or mock (empty pcDNA3.1) (for endogenous Gq-coupling) using 4 μg total DNA in a ratio of 3:1 following the manufacturer’s instructions. For testing Gα16- and GαΔ6qi4myr-coupling, plasmids encoding the corresponding Gα protein were co-transfected instead of mock. Gα16 is naturally promiscuous and stimulates the phospholipase C (PLC) pathway leading to IP production, while the exchange of the C-terminal four amino acids of Gαq for the corresponding residues of Gαi1 in the chimeric GαΔ6qi4myr confers the ability to couple to Gi/o protein-preferring receptors but still stimulate PLC, thus specifically redirecting downstream cellular signaling. 16 h post transfection, the cells were seeded into white 384-well plates at a density of 20,000 cells/well. Media was removed 24 h later and the cells were incubated with the indicated concentration of peptides for 1 h in HBSS + 20 mM LiCl. IP accumulation was measured with the HTRF-based IP-One Gq kit (Cisbio) on a microplate reader (Tecan Spark).
(§4) For in vitro activation, data is presented as mean ± SEM of at least three independent experiments conducted in technical triplicate. […]

[5] = biological target: T1, NPR-4b; assay: IP accumulation assay, co-transfected Gα16, NPR-4b; conditions: 1 h, HBSS + 20 mM LiCl, HEK293 receptor + Gα16, HTRF IP-One, mean of >=3 independent experiments
Procedure: as §3, §4

[6] = 0.1 nM peptide (so in the source)

In the case of “APKPKFIRF-NH2 [FLP-5-1, C. elegans FMRFamide-like peptide, C-terminally amidated, synthesized by SPPS]”, the “cAMP assay Gs, NPR-4b” value ([1]; 0.1 µM peptide) is reported as 0.89 x-fold of basal, the “cAMP assay Gs, NPR-4b” value ([1]; 10 µM peptide) is reported as 0.92 x-fold of basal and the “cAMP assay Gs, NPR-5b” value ([2]; 0.1 µM peptide) is reported as 0.68 x-fold of basal. For the same substance, the “cAMP assay Gs, NPR-5b” value ([2]; 10 µM peptide) was 0.68 x-fold of basal, the “cAMP assay Gs, NPR-11” value ([3]; 0.1 µM peptide) was 0.70 x-fold of basal and the “cAMP assay Gs, NPR-11” value ([3]; 10 µM peptide) was 0.69 x-fold of basal. For the same substance, the “IP assay endog. Gαq + mock, NPR-4b” value [4, 6] was 0.98 x-fold of basal, the “IP assay endog. Gαq + mock, NPR-4b” value ([4]; 10 µM peptide) was 0.99 x-fold of basal and the “IP assay endog. Gαq + Gα16, NPR-4b” value [5, 6] was 1.04 x-fold of basal. The “IP assay endog. Gαq + Gα16, NPR-4b” value ([5]; 10 µM peptide) was 0.84 x-fold of basal.
